These results are taken from patent US6562870B1 (priority 1994, dated 2003).

Where two headings read alike, the source gives them in different places.

One data set concerns AS283 cells. The procedure:
(§1) Both human tumor cell lines were maintained in RPMI 1640 medium plus 10% fetal calf serum. They were seeded in 15-ml rubber-stoppered vials containing 2 μCi of (^14C) glucose and 2 ml of tissue culture media. […] On days 6, 9 and 12, the vials were removed from the incubator and evaluated radiometrically for the amount of ^14CO2 produced. Inhibition of conversion of (^14C) glucose to ^14CO2 is a reliable index of cytotoxicity (Von Hoff et al., Cancer Res. 45:4032-4038, 1985).

The test system of data set [1] is Raji line lymphoblast-like cells. The procedure: as §1
The subject of the next data set is AIDS-associated NHL. The procedure: The daily dose is diluted in 1000 cc of 0.9% Sodium Chloride Injection, USP, or 5% Dextrose Injection, USP, for infusion over 24 hours.
Data set [2] in a line: stability of diluted infusion solutions. It is filed as physicochemical. The settings on record: in 0.9% Sodium Chloride Injection or 5% Dextrose Injection.
The subject of a further data set is advanced NHL. The settings on record: cited from earlier work.
The conditions of data set [3]: in vivo; cited from earlier work.

On to `O=[N+]([O-])[O-].O=[N+]([O-])[O-].O=[N+]([O-])[O-].[Ga+3]` [Gallium Nitrate, gallium nitrate], for which the “% SURVIVAL AS283” value is 99% in the data set with AS283 cells (final concentration 1 mcg/ml), 122% with AS283 cells (final concentration 10 mcg/ml), 58% in the data set on AS283 cells (final concentration 50 mcg/ml) and 0% in the data set on AS283 cells (final concentration 100 mcg/ml). In addition, the “% SURVIVAL RAJI” value was found to be 102% in data set [1] (final concentration 1 mcg/ml), 114% in data set [1] (final concentration 10 mcg/ml) and 33% in data set [1] (final concentration 100 mcg/ml). Besides, the drug-related adverse effects entry in the data set with AIDS-associated NHL (300 mg/sq m/day for 7 days iv, two courses) is on record as “not accompanied by apparent drug-related adverse effects”. In addition, in the data set on AIDS-associated NHL (300 mg/sq m/day for 7 days, intravenous infusion, baseline nodes 9.0×9.0 cm and 3.0×2.0 cm), the “size of nodes after first course” value was “decreased in size”. For the same compound, the “infraclavicular node after second course” value with AIDS-associated NHL (second course three weeks later, baseline 9.0×9.0 cm) is “not palpable at all”. Moreover, the results for the “stability of diluted solution” value in data set [2] (refrigeration (2-8° C.)) and in data set [2] (room temperature (15-30° C.)) were 7 days and 2 days, respectively. In addition, the tolerability and efficacy entry in the data set with advanced NHL (HIV negative patients with advanced NHL) was “well tolerated and effective”. Also, in the data set on advanced NHL (human, in vivo), the myelosuppression or immunosuppression result was “little or no myelosuppression or immunosuppression”. Also, in data set [3], the blood-brain barrier passage entry was “crosses the blood-brain barrier”.

As for `CC(/C=N/NC(=N)N)=N\NC(=N)N` [mitoguazone], the “response to previous treatment” value with AIDS-associated NHL (same patient, before gallium nitrate) is “essentially unresponsive”.
